What was measured:
[1] = biological target: T1, human FLT3-ITD enzyme (Homo sapiens, UniProt P36888); assay: FLT3 enzyme inhibitory ability (ADP-Glo kinase assay); type: biochemical; settings: human FLT3-ITD enzyme 10 ng, ATP 10 μM, 25° C. 1 hour
T1 sequence (P36888 1-993): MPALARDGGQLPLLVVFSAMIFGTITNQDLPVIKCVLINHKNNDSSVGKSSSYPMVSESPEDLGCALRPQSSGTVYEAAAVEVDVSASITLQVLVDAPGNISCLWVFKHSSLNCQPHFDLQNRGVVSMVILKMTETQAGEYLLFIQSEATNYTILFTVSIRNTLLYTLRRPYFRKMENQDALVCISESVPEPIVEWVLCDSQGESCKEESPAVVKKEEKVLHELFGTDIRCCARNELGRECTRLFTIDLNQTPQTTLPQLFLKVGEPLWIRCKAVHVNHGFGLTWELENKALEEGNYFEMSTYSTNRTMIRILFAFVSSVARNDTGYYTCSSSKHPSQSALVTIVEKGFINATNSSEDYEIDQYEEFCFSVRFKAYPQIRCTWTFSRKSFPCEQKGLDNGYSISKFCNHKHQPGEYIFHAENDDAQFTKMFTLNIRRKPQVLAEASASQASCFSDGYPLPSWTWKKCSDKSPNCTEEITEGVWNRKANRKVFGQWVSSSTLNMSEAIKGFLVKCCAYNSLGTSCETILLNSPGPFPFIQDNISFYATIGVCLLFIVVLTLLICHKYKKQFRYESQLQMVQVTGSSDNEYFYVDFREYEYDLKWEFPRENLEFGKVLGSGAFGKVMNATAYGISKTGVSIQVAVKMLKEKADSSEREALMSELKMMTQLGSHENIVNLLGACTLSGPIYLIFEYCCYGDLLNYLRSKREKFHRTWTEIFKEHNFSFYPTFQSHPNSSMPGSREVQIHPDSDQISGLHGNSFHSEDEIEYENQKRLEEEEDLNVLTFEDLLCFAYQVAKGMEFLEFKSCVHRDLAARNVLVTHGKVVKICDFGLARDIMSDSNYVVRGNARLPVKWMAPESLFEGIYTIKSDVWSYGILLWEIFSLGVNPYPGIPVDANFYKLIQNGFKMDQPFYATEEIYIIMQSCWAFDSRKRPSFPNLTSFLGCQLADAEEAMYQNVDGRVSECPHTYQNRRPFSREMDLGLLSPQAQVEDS
Method in brief: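 Purified human FLT3-ITD (10 ng) with 10 μM ATP and specific substrate in 40 mM Tris-HCl pH 7.4, 20 mM MgCl2, 0.5 mg/mL BSA, 50 μM DTT, 1 h at 25 °C. ADP formation read by ADP-Glo luminescence; IC50 (nM) versus solvent-treated control.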

[2] = test system: RS4;11 cells; assay: AML cell proliferation inhibitory activity (CellTiter-Glo); type: cell-based; settings: Homo sapiens, 72 hours
Method: (§1) The inhibitory activities of the example compounds according to the present invention on the proliferation of acute myeloid leukemia (AML) cells expressing the FLT3 mutant gene were evaluated. Specifically, RS4;11 and MV4-11 cells as acute myeloid leukemia cells expressing the FLT3 mutant gene were cultured in RPMI-1640 (Invitrogen) adding 10% FBS. The cells were seeded into each well of a clear bottom white 96-well plate (Corning) at 3000 to 5000 cells 24 hours before compound treatment. The compound was diluted in DMSO (diluted each three-fold, to a total of 12 concentrations) and injected at 0.5 μL each so as to be a final concentration of 0.3 nM to 50 μM. After 72 hours of the compound treatment, they were treated with CellTiter-Glo Luminescent Cell Viability assay (Promega) and stored at room temperature for 10 minutes, and luminescence intensities were measured with a reader (SynergyNeo, Biotek) to count viable cells. Each experiment was performed three times repeatedly. The result values were calculated as the cell growth rate (%) compared to the control treated with the solvent. The graph was derived using the GraphPad Prism program (version 5.0), the GI50 (nM) values were calculated, and the results were shown in Table 3 below.

[3] = test system: MV4-11 cells; assay: as above; type: cell-based; settings: Homo sapiens, 72 hours
Method: as §1

[4] = test system: MCF-7 cells; assay: Breast cancer cell line proliferation inhibitory activity (CellTiter-Glo 2.0); type: cell-based; settings: Homo sapiens, MCF7, 120 hours
Method in brief: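 MCF-7 cells exposed to a 12-point, 3-fold dilution series (final 0.00005–10 μM) for 120 h at 37 °C. Viability read by CellTiter-Glo 2.0 luminescence, expressed as percent of vehicle-treated cells. GI50 (nM) derived from the curves.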

[5] = biological target: T2, human GST-HPK1 (1-346) (Homo sapiens, UniProt Q92918); assay: HPK1 enzyme inhibitory ability (ADP-Glo kinase assay); type: biochemical; settings: human GST-HPK1 3 ng, ATP 3 uM, 25° C. 2 hours
T2 construct: purified human GST-HPK1 (1-346, Signalchem) enzyme; purchased Signalchem
T2 sequence (Q92918 1-346): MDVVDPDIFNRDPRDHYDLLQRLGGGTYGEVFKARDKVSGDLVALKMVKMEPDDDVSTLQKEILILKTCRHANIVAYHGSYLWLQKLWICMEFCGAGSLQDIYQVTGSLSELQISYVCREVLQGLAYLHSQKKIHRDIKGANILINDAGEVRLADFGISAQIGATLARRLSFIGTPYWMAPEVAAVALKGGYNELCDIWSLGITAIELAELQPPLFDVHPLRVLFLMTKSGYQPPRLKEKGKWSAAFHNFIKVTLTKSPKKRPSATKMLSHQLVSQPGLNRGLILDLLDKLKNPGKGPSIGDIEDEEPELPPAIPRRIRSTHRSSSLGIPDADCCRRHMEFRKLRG
Method in brief: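 Human GST-HPK1(1-346), 3 ng, reacted with 3 uM ATP and specific substrate in 40 mM Tris-HCl pH 7.4, 20 mM MgCl2, 0.5 mg/mL BSA, 50 uM DTT for 2 h at 25° C. ADP-Glo luminescence read; IC50 (nM) relative to untreated solvent control.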

IC50 [1] | GI50 [2] | GI50 [3] | GI50 [4] | IC50 [5] | SMILES
0.25 to 0.5 µM | > 0.5 µM | ≥ 0.25 µM | – | – | CN(C)CCN(C)c1ccc(Nc2nc(N3N=CCC3c3ccccc3)c3sccc3n2)cc1 (centres unmarked) [Example 2, N-(2-(dimethylamino)ethyl)-N-methyl-N-(4-(5-phenyl-4,5-dihydro-1H-pyrazol-1-yl)thieno[3,2-d]pyrimidin-2-yl)benzene-1,4-diamine]
> 0.5 µM | > 0.5 µM | > 0.5 µM | > 0.5 µM | > 0.5 µM | CN1CCN(c2ccc(Nc3nc(N4N=CCC4c4ccccc4)c4sccc4n3)cn2)CC1 (centres unmarked) [Example 5, N-(6-(4-methylpiperazin-1-yl)pyridin-3-yl)-4-(5-phenyl-4,5-dihydro-1H-pyrazol-1-yl)thieno[3,2-d]pyrimidin-2-amine]
> 0.5 µM | > 0.5 µM | > 0.5 µM | – | – | C1=NN(c2nc(Nc3ccc(N4CCC(N5CCOCC5)CC4)cc3)nc3ccsc23)C(c2ccccc2)C1 (centres unmarked) [Example 9, N-(4-(4-morpholinopiperidin-1-yl)phenyl)-4-(5-phenyl-4,5-dihydro-1H-pyrazol-1-yl)thieno[3,2-d]pyrimidin-2-amine]
≥ 0.25 µM | > 0.5 µM | 0.25 to 0.5 µM | – | – | CN1CCN(C(=O)Nc2ccc(Nc3nc(N4N=CCC4c4ccccc4)c4sccc4n3)cc2)CC1 (centres unmarked) [Example 20, 4-methyl-N-(4-((4-(5-phenyl-4,5-dihydro-1H-pyrazol-1-yl)thieno[3,2-d]pyrimidin-2-yl)amino)phenyl)piperazine-1-carboxamide]
> 0.5 µM | > 0.5 µM | > 0.5 µM | – | – | CN1CCN(c2ccc(Nc3nc(N4N=CCC4c4cc5ccccc5cn4)c4sccc4n3)cc2)CC1 (centres unmarked) [Example 32, 4-(5-(isoquinolin-3-yl)-4,5-dihydro-1H-pyrazol-1-yl)-N-(4-(4-methylpiperazin-1-yl)phenyl)thieno[3,2-d]pyrimidin-2-amine]
> 0.5 µM | > 0.5 µM | > 0.5 µM | – | – | CN1CCN(c2ccc(Nc3nc(N4N=CCC4c4ccccn4)c4sccc4n3)cc2)CC1 (centres unmarked) [Example 33, N-(4-(4-methylpiperazin-1-yl)phenyl)-4-(5-(pyridin-2-yl)-4,5-dihydro-1H-pyrazol-1-yl)thieno[3,2-d]pyrimidin-2-amine]
> 0.5 µM | > 0.5 µM | ≥ 0.25 µM | – | > 0.5 µM | CN1CCN(c2ccc(Nc3nc(N4N=CCC4c4cccc(F)c4)c4sccc4n3)cc2)CC1 (centres unmarked) [Example 36, 4-(5-(3-fluorophenyl)-4,5-dihydro-1H-pyrazol-1-yl)-N-(4-(4-methylpiperazin-1-yl)phenyl)thieno[3,2-d]pyrimidin-2-amine]
≥ 0.25 µM | > 0.5 µM | ≥ 0.25 µM | – | – | CCN1CCN(c2ccc(Nc3nc(N4N=CCC4c4ccccc4)c4sccc4n3)cc2)CC1 (centres unmarked) [Example 39, N-(4-(4-ethylpiperazin-1-yl)phenyl)-4-(5-phenyl-4,5-dihydro-1H-pyrazol-1-yl)thieno[3,2-d]pyrimidin-2-amine]
0.25 to 0.5 µM | > 0.5 µM | ≥ 0.25 µM | – | – | COc1cc(Nc2nc(N3N=CCC3c3ccccc3)c3sccc3n2)ccc1N1CCN(C)CC1 (centres unmarked) [Example 40, N-(3-methoxy-4-(4-methylpiperazin-1-yl)phenyl)-4-(5-phenyl-4,5-dihydro-1H-pyrazol-1-yl)thieno[3,2-d]pyrimidin-2-amine]
≥ 0.25 µM | > 0.5 µM | ≥ 0.25 µM | – | – | CCN1CCN(c2ccc(Nc3nc(N4N=CCC4c4ccccc4)c4sccc4n3)c(OC)c2)CC1 (centres unmarked) [Example 41, N-(4-(4-ethylpiperazin-1-yl)-2-methoxyphenyl)-4-(5-phenyl-4,5-dihydro-1H-pyrazol-1-yl)thieno[3,2-d]pyrimidin-2-amine]
> 0.5 µM | > 0.5 µM | 0.25 to 0.5 µM | – | – | CCN(CC)CCOc1c(C)cc(Nc2nc(N3N=CCC3c3ccccc3)c3sccc3n2)cc1C (centres unmarked) [Example 46, N-(4-(2-(diethylamino)ethoxy)-3,5-dimethylphenyl)-4-(5-phenyl-4,5-dihydro-1H-pyrazol-1-yl)thieno[3,2-d]pyrimidin-2-amine]
> 0.5 µM | > 0.5 µM | ≥ 0.25 µM | – | – | COc1cc(Nc2nc(N3N=CCC3c3ccccc3)c3sccc3n2)cc(OC)c1OC (centres unmarked) [Example 51, 4-(5-phenyl-4,5-dihydro-1H-pyrazol-1-yl)-N-(3,4,5-trimethoxyphenyl)thieno[3,2-d]pyrimidin-2-amine]
≥ 0.25 µM | – | > 0.5 µM | 0.25 to 0.5 µM | ≥ 0.25 µM | c1ccc([C@@H]2CCON2c2nc(Nc3ccc4c(c3)CCNC4)nc3[nH]ccc23)cc1 [Example 110, (S)-N-(4-(3-phenylisoxazolidin-2-yl)-7H-pyrrolo[2,3-d]pyrimidin-2-yl)-1,2,3,4-tetrahydroisoquinolin-6-amine]
0.25 to 0.5 µM | – | ≥ 0.25 µM | > 0.5 µM | ≥ 0.25 µM | CC(C)(O)CN1CCc2cc(Nc3nc(N4OCC[C@H]4c4ccccc4)c4cc[nH]c4n3)ccc2C1 [Example 111, (S)-2-methyl-1-(6-((4-(3-phenylisoxazolidin-2-yl)-7H-pyrrolo[2,3-d]pyrimidin-2-yl)amino)-3,4-dihydroisoquinolin-2(1H)-yl)propan-2-ol]
≥ 0.25 µM | – | > 0.5 µM | ≥ 0.25 µM | ≥ 0.25 µM | Clc1c[nH]c2nc(Nc3ccc4c(c3)CCNC4)nc(N3OCC[C@H]3c3ccccc3)c12 [Example 117, (S)-N-(5-chloro-4-(3-phenylisoxazolidin-2-yl)-7H-pyrrolo[2,3-d]pyrimidin-2-yl)-1,2,3,4-tetrahydroisoquinolin-6-amine]
≥ 0.25 µM | – | ≥ 0.25 µM | > 0.5 µM | ≥ 0.25 µM | CN1CCN(C2CCN(c3ccc(Nc4nc(N5OCC[C@H]5c5ccccc5)c5c(C#N)c[nH]c5n4)cc3)CC2)CC1 [Example 119, (S)-2-((4-(4-(4-methylpiperazin-1-yl)piperidin-1-yl)phenyl)amino)-4-(3-phenylisoxazolidin-2-yl)-7H-pyrrolo[2,3-d]pyrimidine-5-carbonitrile]
≥ 0.25 µM | – | ≥ 0.25 µM | ≥ 0.25 µM | ≥ 0.25 µM | N#Cc1c[nH]c2nc(Nc3ccc4c(c3)CCNC4)nc(N3OCC[C@H]3c3ccccc3)c12 [Example 120, (S)-4-(3-phenylisoxazolidin-2-yl)-2-((1,2,3,4-tetrahydroisoquinolin-6-yl)amino)-7H-pyrrolo[2,3-d]pyrimidine-5-carbonitrile]

— patent US20220242870A1, “HETEROCYCLE-FUSED PYRIMIDINE DERIVATIVE AND USE THEREOF” (VORONOI Inc., priority 2019, published 2022)
